Data on three compounds can be found in BindingDB's records for PubMed 9226416 (University of Sydney, 1997).

The target in assay [1] is T1, Gamma-aminobutyric acid receptor subunit alpha-3 (Homo sapiens, UniProt P34903).
T1 sequence (P34903 whole entry): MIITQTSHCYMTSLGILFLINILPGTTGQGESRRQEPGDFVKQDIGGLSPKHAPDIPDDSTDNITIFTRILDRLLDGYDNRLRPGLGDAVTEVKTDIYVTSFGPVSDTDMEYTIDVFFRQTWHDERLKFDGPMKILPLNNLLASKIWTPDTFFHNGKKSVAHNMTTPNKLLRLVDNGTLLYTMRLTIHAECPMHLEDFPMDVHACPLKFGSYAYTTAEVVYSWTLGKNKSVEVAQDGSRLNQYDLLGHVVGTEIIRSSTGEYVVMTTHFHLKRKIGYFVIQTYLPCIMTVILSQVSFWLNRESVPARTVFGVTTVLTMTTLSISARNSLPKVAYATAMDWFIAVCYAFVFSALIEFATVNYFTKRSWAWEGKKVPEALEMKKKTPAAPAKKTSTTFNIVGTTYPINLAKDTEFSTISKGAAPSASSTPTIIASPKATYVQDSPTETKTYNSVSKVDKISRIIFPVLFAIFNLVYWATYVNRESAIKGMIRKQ

In assay [2] the target is Gamma-aminobutyric acid (GABA) B receptor 1 (Rattus norvegicus, UniProt Q6MFX8).
Sequence of Gamma-aminobutyric acid (GABA) B receptor 1 (Q6MFX8 whole entry): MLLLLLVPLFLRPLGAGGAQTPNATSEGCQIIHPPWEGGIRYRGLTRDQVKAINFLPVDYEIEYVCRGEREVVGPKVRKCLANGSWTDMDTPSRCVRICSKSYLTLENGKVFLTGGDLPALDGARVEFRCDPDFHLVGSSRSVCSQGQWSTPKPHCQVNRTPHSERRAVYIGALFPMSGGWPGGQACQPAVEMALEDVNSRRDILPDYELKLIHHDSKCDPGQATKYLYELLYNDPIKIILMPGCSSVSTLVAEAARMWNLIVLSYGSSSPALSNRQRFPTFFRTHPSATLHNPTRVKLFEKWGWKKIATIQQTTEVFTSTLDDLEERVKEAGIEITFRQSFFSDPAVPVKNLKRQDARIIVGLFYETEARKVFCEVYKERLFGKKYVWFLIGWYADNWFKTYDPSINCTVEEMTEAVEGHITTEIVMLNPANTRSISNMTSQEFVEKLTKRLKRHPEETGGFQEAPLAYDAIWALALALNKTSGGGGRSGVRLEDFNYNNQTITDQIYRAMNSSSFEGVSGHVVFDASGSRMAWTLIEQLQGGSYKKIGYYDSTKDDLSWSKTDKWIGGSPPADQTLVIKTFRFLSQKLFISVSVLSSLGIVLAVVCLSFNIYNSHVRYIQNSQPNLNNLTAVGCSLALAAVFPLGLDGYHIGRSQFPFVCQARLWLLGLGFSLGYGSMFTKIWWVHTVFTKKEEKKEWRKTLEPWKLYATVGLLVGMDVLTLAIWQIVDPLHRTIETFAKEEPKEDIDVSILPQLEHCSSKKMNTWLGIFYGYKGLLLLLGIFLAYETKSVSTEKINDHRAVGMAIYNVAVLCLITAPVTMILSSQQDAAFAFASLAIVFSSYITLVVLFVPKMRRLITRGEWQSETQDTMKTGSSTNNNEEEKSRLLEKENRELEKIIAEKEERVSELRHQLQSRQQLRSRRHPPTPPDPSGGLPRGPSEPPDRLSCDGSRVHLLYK

By Ki is commonly meant the equilibrium dissociation constant of an inhibitor or competing ligand from its target. A higher Ki goes with weaker binding. With `CP(=O)(O)CCCN` [CGP35024], the Ki in assay [1] amounted to 750 nM. Turning to `NCCC[PH](=O)O` [(3-aminopropyl)phosphinic acid], the results for the Ki in assay [2] and in assay [1] were 5 nM and 2470 nM, respectively. For the compound `CCCCP(=O)(O)CCCN` [CGP36742], in assay [1], the Ki was above 10000 nM.
